Entries after “also recorded” stand apart in the source; their conditions may differ. Read-outs that look alike come from different tables or passages of the source.

One assay concerns the target gamma-secretase (Homo sapiens, UniProt P49768). As to conditions: recombinant APP C100 substrate; cited from earlier work.
In assay [1] the test system is oligodendrocytes in OPC-RGC reaggregate cocultures. As to the kind of experiment: OPC-RGC reaggregate coculture myelination (MBP/NG2 immunostaining). In kind it is cell-based, rat. The procedure: Purification of RGCs. Retinal ganglion cells (RGCs) were purified to >99.5% homogeneity from two- to three-litters of 5-day-old (P5) rat retinae by immunopanning as previously described. Briefly, retinae were digested with papain at 37° C. Following gentle trituration, cells were resuspended in a panning buffer containing insulin (5 μg/ml) and then incubated at room temperature with rabbit anti-macrophage antibodies. Retinal cells were incubated at room temperature sequentially on three immunopanning dishes: two coated with anti-rabbit secondary antibodies (to negatively select macrophages) and the third with T11D7 anti-Thy1 mAb. RGCs were released from the final panning dish with trypsin (Sigma).
To produce reaggregates, RGCs were plated at high density (>1,000 cells/μl) in 400 μl RGC growth medium in wells an 8-well chamber-slide (Nunc) coated with a surface that is not strongly adherent for RGCs (Permanox). One- to three-hours after plating, RGCs were resuspended gently to promote interaction and reaggregation, and this was repeated the following day. Following two days of culture at high density, reaggregates were collected and allowed to settle to separate them from dead RGCs, non-aggregated cells, and small reaggregates (<10 cells). […]

A further assay deals with γ-secretase active site (Homo sapiens, UniProt P49768). As to conditions: cited from earlier work.
For assay [2], the system named is Notch1f/f OPCs on RGC reaggregates. As to the kind of experiment: Myelination by floxxed Notch1 OPCs (AdCre/AdEmpty) cocultured with RGC reaggregates. In kind it is cell-based, mouse. The conditions noted are these: 1 μM DAPT, six days of coculture, with or without glial Notch1. As for the experimental part:
FIG. 5. […] (A-C) Infection of OPCs from floxxed Notch1 mice (Notch1^f/f) with a recombinant adenovirus for expression of Cre recombinase (AdCre) results in rapid reduction of Notch1 protein. Notch1^f/f-OPCs, purified by immunopanning with anti-PDGFRα, were cultured for 2 days prior to infection for 24 hours with AdCre or a control virus (AdEmpty) at a multiplicity of infection of 10. The next day, cells were re-plated on RGC reaggregate cultures and on coverslips for analysis of Notch1 knockout, which was assessed by immunostaining (a,b) and Western blot analysis 24 hours later (c).
Conditional knockout cells and infection with AdCre. OPCs were purified from P9 Notch1 conditional knockout (gift of A. Rosenthal, Genentech) and presenilin double conditional knockout (gift of Jie Shen, Brigham and Women's hospital) mouse brains by a slight modification of the panning protocol for rat cells as described previously. The first panning dish was coated with mouse anti-mouse Thy1.2 (Serotec) rather than Ran-2. Mouse OPCs were plated on PDL-coated flasks in defined proliferation medium (DMEM supplemented with B27, insulin, 10 ng/ml PDGF, 1 ng/ml NT3, 10 ng/ml CNTF, and forskolin) for 2 days and then passaged onto PDL-coated tissue culture plates at a density of 1 million cells per plate. […]

Assay [3] deals with T1, γ-secretase (Homo sapiens, UniProt P49768). As to conditions: read-out: Cell-free; cited from earlier work.
A further assay addresses PS-1 (Homo sapiens, UniProt P49768). The conditions noted are these: cited from earlier work.
Assay [4] deals with dorsal root ganglion (DRG) neurons and oligodendrocytes. As to the kind of experiment: Myelination of dorsal root ganglion neurons by oligodendrocytes. Format: cell-based.
Assay [5] addresses T1, γ-secretase. As to conditions: read-out: In cells; cited from earlier work.
In a further assay the target is PS-2 (Homo sapiens, UniProt P49810). As to conditions: cited from earlier work.

Consider `CSc1ccc(/C=C2/C(C)=C(CC(=O)O)c3cc(F)ccc32)cc1` [Sulindac sulfide], for which the “inhibition of gamma(42)-secretase activity” value on gamma-secretase is “preferentially inhibits”.
For the molecule `C[C@H](NC(=O)Cc1cc(F)cc(F)c1)C(=O)N[C@H](C(=O)OC(C)(C)C)c1ccccc1` [DAPT], in assay [1] (1 μM DAPT, six-day cocultures), the “proportion of MBP+ oligodendrocytes that formed myelin segments” value is listed as “significantly increased; also recorded: the majority of oligodendrocytes myelinate”. Also, in assay [1] (cocultures with DAPT), the “proportion of NG2+ OPCs or MBP+ oligodendrocytes” value was “did not consistently alter”. On γ-secretase active site, the Displacement result is “YES” and the “competition for the γ-secretase active site in a displacement assay” value is on record as “can compete moderately”. Further, the “myelination (proportion of cells that myelinate)” value in [2] is “enhances myelination either in the presence (AdEmpty) or absence (AdCre) of glial Notch1”. In addition, the IC50 on γ-secretase [3] was 0.01 µM. Moreover, the “inhibition of PS-1” value at PS-1 is recorded as “inhibits”. In addition, in assay [4], the “myelination of DRG neurons by oligodendrocytes” value was “profoundly enhanced myelination”. Moreover, at γ-secretase [5], the IC50 is 0.02 µM. In addition, the “inhibition of PS-2” value on PS-2 is recorded as “inhibits”.
Consider `C[C@@H](NC(=O)Cc1cc(F)cc(F)c1)C(=O)N[C@H]1N=C(c2ccccc2)c2ccccc2N(C)C1=O` [Compound E], for which the Displacement entry on γ-secretase active site was “YES”. The IC50 is 0.003 µM on γ-secretase [3] and 0.0003 µM at γ-secretase [5].
On to `CCC(C)C(NC(=O)C(CCCCNC(=O)OC(C)(C)C)NC(=O)OC(C)(C)C)C(=O)NC(CC(C)C)C1CO1` (stereo not drawn) [Epoxide], for which the IC50 at γ-secretase [3] and on γ-secretase [5] was 20 µM each time.
As for “Boc-D-Val-Gly-Aib-D-Val-D-Val-D-He-Aib-D-Thr(OBn)-D-Val-Aib-OMe [D-Helical peptide 294]”, the IC50 at γ-secretase [3] is 0.1 µM; at γ-secretase [5], 3 µM.
In the case of `COC(=O)[C@@H](NC(=O)[C@H](CC(C)C)NC(=O)N(Cc1ccccc1)C[C@@H](O)[C@H](Cc1ccccc1)NC(=O)OC(C)(C)C)C(C)C` [III-31-C], at γ-secretase active site, the Displacement result was “YES”. Also, the IC50 at γ-secretase [3] was 0.01 µM; on γ-secretase [5] it was 0.2 µM.
(Z-LL)2-ketone: the Displacement entry on γ-secretase active site is “YES”. The IC50 at γ-secretase [3] is 30 µM; on γ-secretase [5] it was more than 100 µM.

Values taken from patent publication US7973011B2, “Blockade of gamma-secretase activity to promote myelination by oligodendrocytes” (The Board of Trustees of the Leland Stanford Junior …, priority 2006, dated 2011).
